Test results reported in PMC8765275, “Self-Inhibitory Peptides Targeting the Neisseria gonorrhoeae MtrCDE Efflux Pump Increase Antibiotic Susceptibility” (Antimicrobial Agents and Chemotherapy, 2022).
Read-outs that look alike come from different tables or passages of the source.

Experiments:
[1] = test system: N. gonorrhoeae strain WHO X (MtrCDE overexpression); assay: microbe, parasite or virus in culture; type: cell-based, Neisseria gonorrhoeae; conditions: for MIC: Neisseria gonorrhoeae, 20 h
Experimental: (§1) Six peptides were tested against N. gonorrhoeae strains with various antimicrobial resistance phenotypes and with either standard MtrCDE expression (strain FA1090) or MtrCDE overexpression (strains WHO K, WHO P, and WHO X [15, 16]) (Table 2). […] Subsequent experiments were conducted with subinhibitory peptide concentrations (20 μg/ml for FA1090; 50 μg/ml for WHO K, WHO P, and WHO X).
(§2) Experiments were performed using a microdilution method in triplicate wells.
(§3) High-level resistance, resistance, intermediate resistance, and susceptibility phenotypes were determined per previously determined MIC values ([15]) using the interpretive criteria published by the Swedish Reference Group on Antibiotics (SGRA) ([25]). For cotreatment assays (peptide plus antibiotic), the antibiotic dilutions were made up in GC broth that contained the peptide at the appropriate concentration. The experiments were performed with peptide-only and antibiotic-only controls. Each well was inoculated with 10 μl of the appropriate N. gonorrhoeae strain at an optical density (absorbance at 600 nm) of 0.1 (∼1 × 10^6 CFU/ml). All experiments were performed with triplicate samples on at least three occasions.

[2] = test system: N. gonorrhoeae strain WHO P (MtrCDE overexpression); assay: microbe, parasite or virus in culture; type: cell-based, Neisseria gonorrhoeae; conditions: for MIC: Neisseria gonorrhoeae, 20 h; for Reduction of azithromycin MIC compared with that for MtrCDE knockout versus wild-type strains: 50 μg/ml peptide, knockout comparison from ref 6; for Antimicrobial resistance phenotype, AZM, in the presence of peptide: cotreatment with 50 μg/ml peptide, EUCAST breakpoints
Experimental: as §1, §2, §3

[3] = test system: N. gonorrhoeae strain FA1090 (standard MtrCDE expression); assay: MIC, broth microdilution (CLSI), antibiotic alone, peptide alone or peptide cotreatment; type: cell-based; conditions: Neisseria gonorrhoeae
Experimental: as §1, §2, §3

[4] = test system: N. gonorrhoeae strain WHO K (MtrCDE overexpression); assay: microbe, parasite or virus in culture; type: cell-based, Neisseria gonorrhoeae; conditions: for MIC: Neisseria gonorrhoeae, 20 h
Experimental: as §1, §2
as §3, with “High-level resistance, resistance, intermediate resistance, and susceptibility phenotypes were determined per previously determined MIC values ([15]) using the interpretive criteria published by the Swedish Reference Group on Antibiotics (SGRA) ([25]).” left out

[5] = test system: N. gonorrhoeae strain WHO X ΔmtrE; assay: Antibiotic MIC with or without P-MtrE1, mtrE knockout strain; type: cell-based, Neisseria gonorrhoeae
Experimental: (§4) N. gonorrhoeae strains used in this study include FA1090 (standard MtrCDE expression) ([22]), WHO K (MtrCDE overexpression) ([15]), WHO P (MtrCDE overexpression) ([15]), and WHO X (MtrCDE overexpression) ([16]). Wild-type strains were grown on GC agar or in GC broth (Oxoid) supplemented with IsoVitaleX (Bacto) at 37°C in 5% CO2. mtrE knockout strains of N. gonorrhoeae WHO X and WHO P (ΔmtrE) were generated by transforming bacteria with 1 μg of a linear DNA fragment (IDT) containing aminoglycoside 3′-phosphotransferase gene (NCBI accession no. VTT49712.1) flanked by 500-bp terminal fragments of the N. gonorrhoeae FA1090 mtrE gene (GenBank accession no. AE004969.1, positions 1 to 500 and 903 to 1403), as well as the gonococcal DNA uptake sequence ([…]) at the 5′ end ([23]). E. coli strain DH5α, used for cloning, was grown using Luria-Bertani agar or broth (Oxoid) at 37°C. The media were supplemented with 100 μg/ml ampicillin or 50 μg/ml kanamycin, as required.
as §2, §3

[6] = test system: N. gonorrhoeae strain WHO P ΔmtrE; assay: as above; type: cell-based, Neisseria gonorrhoeae
Experimental: as §4, §2, §3

[7] = test system: N. gonorrhoeae strains FA1090, WHO K, WHO P, WHO X; assay: Antibiotic MIC with peptide cotreatment, summarised over the strains tested; type: cell-based, Neisseria gonorrhoeae; conditions: for Reduction of the MICs of the four antibiotics tested on cotreatment: for at least one N. gonorrhoeae strain
Experimental: as §1, §2, §3

[8] = read-out: MIC of AZM (azithromycin)
[9] = WHO K, antibiotic alone, EUCAST breakpoints
[10] = read-out: MIC of CRO (ceftriaxone)
[11] = read-out: MIC of ERY (erythromycin)
[12] = gentamicin is not subject to efflux by MtrCDE
[13] = presence or absence of subinhibitory P-MtrE1 concentrations (0 or 6.5 μg/ml, Fig. 2)

## CC[C@H]1OC(=O)[C@H](C)[C@@H](O[C@H]2C[C@@](C)(OC)[C@@H](O)[C@H](C)O2)[C@H](C)[C@@H](O[C@@H]2O[C@H](C)C[C@H](N(C)C)[C@H]2O)[C@](C)(O)C[C@@H](C)CN(C)[C@H](C)[C@@H](O)[C@]1(C)O [AZM, azithromycin]
[1]; [8]
  MIC: 0.5 µg/mL
[2]; [8]
  MIC: 4 µg/mL
[3]; read-out: MIC of AZM (azithromycin), antibiotic alone, microdilution per CLSI, GC broth, 20 h, triplicate wells
  MIC: 0.063 µg/mL
[4]; [8]
  MIC: 0.25 µg/mL
[4]; [9]
  Antimicrobial resistance phenotype, AZM: S (S ≤ 0.25)

## CO/N=C(\C(=O)N[C@@H]1C(=O)N2C(C(=O)O)=C(CSc3nc(=O)c(=O)[nH]n3C)CS[C@H]12)c1csc(N)n1 [CRO, ceftriaxone]
[1]; [10]
  MIC: 2 µg/mL
[2]; [10]
  MIC: 0.004 µg/mL
[3]; read-out: MIC of CRO (ceftriaxone), antibiotic alone, microdilution per CLSI, GC broth, 20 h, triplicate wells
  MIC: < 0.0078 µg/mL
[4]; [10]
  MIC: 0.031 µg/mL
[4]; [9]
  Antimicrobial resistance phenotype, CRO: S (S ≤ 0.125)

## CC[C@H]1OC(=O)[C@H](C)[C@@H](O[C@H]2C[C@@](C)(OC)[C@@H](O)[C@H](C)O2)[C@H](C)[C@@H](O[C@@H]2O[C@H](C)C[C@H](N(C)C)[C@H]2O)[C@](C)(O)C[C@@H](C)C(=O)[C@H](C)[C@@H](O)[C@]1(C)O [ERY, erythromycin, reference compound]
[1]; [11]
  MIC: 2 µg/mL
[2]; [11]
  MIC: 16 µg/mL
[3]; antibiotic alone, microdilution per CLSI, GC broth, 20 h, triplicate wells, read-out: MIC of ERY (erythromycin)
  MIC: 0.2 µg/mL

## (KFF)3KGSG HLSLIATV [P-MtrE1, self-derived peptide, 8 amino acids of MtrE fused to (KFF)3K cell-permeating peptide and GSG linker]
[1]; WHO X wild-type, gentamicin is not subject to efflux by MtrCDE
  Impact of peptide on susceptibility to gentamicin: no impact
[1]; WHO X, 50 μg/ml peptide, knockout comparison from ref 6
  Reduction of ciprofloxacin and ceftriaxone MICs compared with that between MtrCDE knockout and wild-type strains: same magnitude
[1]; WHO X, concentrations as low as
  Peptide concentration able to reduce the MICs of ciprofloxacin and ceftriaxone: ≤ 6.25 µg/mL
[2]; WHO P wild-type, gentamicin is not subject to efflux by MtrCDE
  Impact of peptide on susceptibility to gentamicin: no impact
[2]; WHO P
  Reduction of azithromycin MIC compared with that for MtrCDE knockout versus wild-type strains: same magnitude
  Antimicrobial resistance phenotype, AZM, in the presence of peptide: S (S ≤ 0.25)
[2]; WHO P, concentrations as low as
  Peptide concentration able to reduce the MICs of erythromycin and azithromycin: ≤ 6.25 µg/mL
[5]; [12]
  Impact of peptide on susceptibility to gentamicin: no impact
[5]; [13]
  Change in antibiotic susceptibility to ciprofloxacin or ceftriaxone with peptide: no change
[6]; [12]
  Impact of peptide on susceptibility to gentamicin: no impact
[6]; [13]
  Change in antibiotic susceptibility to erythromycin or azithromycin with peptide: no change
[7]
  Reduction of the MICs of the four antibiotics tested on cotreatment: at least 2 fold

## (KFF)3KGSGDAAHLSLIATVAKAYFNERY [P-MtrE2, self-derived peptide, 20 amino acids of MtrE fused to (KFF)3K cell-permeating peptide and GSG linker]
[7]
  Reduction of the MICs of the four antibiotics tested on cotreatment: at least 2 fold

## (KFF)3KGSGVFLVPLFY [P-MtrD1, self-derived peptide, 8 amino acids of MtrD fused to (KFF)3K cell-permeating peptide and GSG linker]
[7]
  Reduction of the MICs of the four antibiotics tested on cotreatment: at least 2 fold

## (KFF)3KGSGVMKLRRQI [P-MtrC1, self-derived peptide, 8 amino acids of MtrC fused to (KFF)3K cell-permeating peptide and GSG linker]
[2]; WHO P
  Reduction of azithromycin MIC compared with that for MtrCDE knockout versus wild-type strains: same magnitude
  Antimicrobial resistance phenotype, AZM, in the presence of peptide: I
[7]
  Reduction of the MICs of the four antibiotics tested on cotreatment: at least 2 fold

## HLSLIATV [P-MtrE1a]
[7]; control peptides, any strain against which P-MtrE1 had an effect
  Effect of peptide on susceptibility to the antibiotics tested: not able to increase susceptibility to any antibiotic
